Assay results as given in US9200001B2, “Triazolyl PDE10 inhibitors” (Merck Sharp & Dohme Corp., priority 2011, dated 2015).

These compounds were tested against human PDE10A2 (Homo sapiens (Human), UniProt Q9Y233) (assay: PDE10 fluorescence polarization (IMAP FP) inhibition assay). Conditions: FAM-labeled cAMP 50 nM, room temperature, read-out: PDE10a Ki.
Type: biochemical
Summary of the method: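 Cytoplasmic lysate of AD293 cells transiently expressing human PDE10A2, incubated 30 minutes at room temperature with 50 nM FAM-labeled cAMP in Tris pH 7.2 with MgCl2. Read by IMAP fluorescence polarization; 0% inhibition set by 1% DMSO, 100% by a reference PDE10 inhibitor.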

Chain of human PDE10A2 (Q9Y233 267-1055): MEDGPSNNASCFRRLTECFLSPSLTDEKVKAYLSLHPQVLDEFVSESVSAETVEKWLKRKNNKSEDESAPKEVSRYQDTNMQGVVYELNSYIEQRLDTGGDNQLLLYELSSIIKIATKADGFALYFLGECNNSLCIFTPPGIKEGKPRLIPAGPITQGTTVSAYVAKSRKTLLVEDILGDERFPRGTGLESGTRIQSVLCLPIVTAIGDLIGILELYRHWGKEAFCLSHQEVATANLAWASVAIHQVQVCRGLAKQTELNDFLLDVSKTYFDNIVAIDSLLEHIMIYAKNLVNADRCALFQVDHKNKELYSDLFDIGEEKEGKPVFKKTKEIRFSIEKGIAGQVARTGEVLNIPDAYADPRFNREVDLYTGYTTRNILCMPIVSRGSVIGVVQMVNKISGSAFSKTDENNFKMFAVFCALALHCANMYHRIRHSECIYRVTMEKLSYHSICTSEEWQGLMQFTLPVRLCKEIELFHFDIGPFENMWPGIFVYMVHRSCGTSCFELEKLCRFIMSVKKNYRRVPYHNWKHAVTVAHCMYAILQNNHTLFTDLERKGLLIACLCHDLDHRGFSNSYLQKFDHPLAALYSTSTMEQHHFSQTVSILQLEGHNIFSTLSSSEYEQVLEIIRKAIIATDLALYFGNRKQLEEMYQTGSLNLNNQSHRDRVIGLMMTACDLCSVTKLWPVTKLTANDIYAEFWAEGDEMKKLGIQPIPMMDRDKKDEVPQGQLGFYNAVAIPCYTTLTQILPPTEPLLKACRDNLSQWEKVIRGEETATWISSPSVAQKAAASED

Structure (SMILES) | Ki
Cc1nc(C2CC2c2nc3ccc(Cl)cc3[nH]2)cc(-n2nc(C)nc2C)n1 (stereo not shown) [Cpd 57, 6-chloro-2-(2-(6-(3,5-dimethyl-1H-1,2,4-triazol-1-yl)-2-methylpyrimidin-4-yl)cyclopropyl)-1H-benzo[d]imidazole] | 30.7 nM
Cc1nc([C@@H]2C[C@H]2c2nc3ccccc3n2Cc2ccncc2)cc(-n2nc(C)nc2C)n1 (stereo in doubt) [Cpd 76, 2-{2-[6-(3,5-dimethyl-1H-1,2,4-triazol-1-yl)-2-methylpyrimidin-4-yl]cyclopropyl}-1-(pyridin-4-ylmethyl)-1H-benzimidazole] | 18.3 nM
Cc1nc(C)n(-c2cc([C@H]3C[C@@H]3c3nc4ccccc4n3C)nc(N)n2)n1 (relative stereo) [Cpd 123, trans-4-(3,5-dimethyl-1H-1,2,4-triazol-1-yl)-6-[2-(1-methyl-1H-benzimidazol-2-yl)cyclopropyl]pyrimidin-2-amine] | 4.2 nM
Cc1nc([C@@H]2C[C@H]2c2nc3ccccc3n2C)cc(-n2nc(C)nc2C(C)(C)O)n1 [Cpd 98, 2-(3-methyl-1-{2-methyl-6-[(1R,2R)-2-(1-methyl-1H-benzimidazol-2-yl)cyclopropyl]pyrimidin-4-yl}-1H-1,2,4-triazol-5-yl)propan-2-ol] | 4.2 nM
Cc1nc([C@@H]2C[C@H]2c2nc3ccc(F)cc3[nH]2)cc(-n2nc(C)nc2C)n1 [Cpd 68, 2-{(1R,2R)-2-[6-(3,5-dimethyl-1H-1,2,4-triazol-1-yl)-2-methylpyrimidin-4-yl]cyclopropyl}-6-fluoro-1H-benzimidazole] | 9.2 nM
Cc1nc([C@@H]2C[C@H]2c2ccc3ccccc3n2)cc(-n2nc(C)nc2C)n1 (relative stereo) [Cpd 127, trans-2-{2-[6-(3,5-dimethyl-1H-1,2,4-triazol-1-yl)-2-methylpyrimidin-4-yl]cyclopropyl}quinoline] | 6 nM
Cc1nc([C@@H]2C[C@H]2c2nc3ccccc3n2C)cc(-n2cnc(C)n2)n1 [Cpd 77, 1-methyl-2-{(1R,2R)-2-[2-methyl-6-(3-methyl-1H-1,2,4-triazol-1-yl)pyrimidin-4-yl]cyclopropyl}-1H-benzimidazole] | 9 nM
Cc1nc(C2CC2c2nc3ccccc3n2C)cc(-n2nc(C)nc2C)n1 (stereo not shown) [Cpd 36, 2-(2-(6-(3,5-dimethyl-1H-1,2,4-triazol-1-yl)-2-methylpyrimidin-4-yl)cyclopropyl)-1-methyl-1H-benzo[d]imidazole] | 3.5 nM
Cc1nc(C)n(-c2cc([C@H]3C[C@@H]3c3nc4ccccc4n3C)cnn2)n1 (relative stereo) [Cpd 128, trans-2-{2-[6-(3,5-dimethyl-1H-1,2,4-triazol-1-yl)pyridazin-4-yl]cyclopropyl}-1-methyl-1H-benzimidazole] | 38 nM
Cc1nc([C@H]2C[C@@H]2c2nc3ccccc3n2C)cc(-n2nc(C)nc2C2CCN(C(=O)OC(C)(C)C)CC2)n1 (stereo in doubt) [Cpd 84, tert-butyl 4-(3-methyl-1-{2-methyl-6-[2-(1-methyl-1H-benzimidazol-2-yl)cyclopropyl]pyrimidin-4-yl}-1H-1,2,4-triazol-5-yl)piperidine-1-carboxylate] | > 75 nM
Cc1nc([C@H]2C[C@@H]2c2nc3ccccc3[nH]2)cc(-n2nc(C)nc2C)n1 [Cpd 90, 2-{(1S,2S)-2-[6-(3,5-dimethyl-1H-1,2,4-triazol-1-yl)-2-methylpyrimidin-4-yl]cyclopropyl}-1H-benzimidazole] | 38 nM
Cc1nc([C@@H]2C[C@H]2c2nc3ccccc3n2C)cc(-n2nc(C)nc2C2CCN(C)CC2)n1 [Cpd 96, 1-methyl-2-[(1R,2R)-2-{2-methyl-6-[3-methyl-5-(1-methylpiperidin-4-yl)-1H-1,2,4-triazol-1-yl]pyrimidin-4-yl}cyclopropyl]-1H-benzimidazole] | 3.9 nM
Cc1nc([C@H]2C[C@@H]2c2nc3ccccc3n2C)cc(-n2nc(C)nc2-c2ccccn2)n1 (stereo in doubt) [Cpd 82, 1-methyl-2-{2-[2-methyl-6-(3-methyl-5-pyridin-2-yl-1H-1,2,4-triazol-1-yl)pyrimidin-4-yl]cyclopropyl}-1H-benzimidazole] | > 75 nM
Cc1cc([C@H]2C[C@@H]2c2nc3ccccc3n2C)cc(-n2nc(C)nc2C)n1 (relative stereo) [Cpd 110, trans-2-{2-[2-(3,5-dimethyl-1H-1,2,4-triazol-1-yl)-6-methylpyridin-4-yl]cyclopropyl}-1-methyl-1H-benzimidazole] | 18.4 nM
COc1ccc2nc(C3CC3c3cc(-n4nc(C)nc4C)nc(C)n3)[nH]c2c1 (stereo not shown) [Cpd 59, 2-(2-(6-(3,5-dimethyl-1H-1,2,4-triazol-1-yl)-2-methylpyrimidin-4-yl)cyclopropyl)-6-methoxy-1H-benzo[d]imidazole] | 30.5 nM
Cc1nc(C)n(-c2cc([C@@H]3C[C@H]3c3nc4ccccc4n3C)nc(O)n2)n1 (relative stereo) [Cpd 125, trans-4-(3,5-dimethyl-1H-1,2,4-triazol-1-yl)-6-[2-(1-methyl-1H-benzimidazol-2-yl)cyclopropyl]pyrimidin-2-ol] | 19 nM

These reach a lower Ki. Values come first.

Ki | Structure (SMILES)
0.005 nM | COc1ccc(Cc2nc(C)nn2-c2cc([C@@H]3C[C@H]3c3nc4ccccc4[nH]3)nc(C)n2)cc1OC [Cpd 26, 2-((1R,2R)-2-(6-(5-(3,4-dimethoxybenzyl)-3-methyl-1H-1,2,4-triazol-1-yl)-2-methylpyrimidin-4-yl)cyclopropyl)-1H-benzo[d]imidazole]
1.2 nM | CCc1nc([C@H]2C[C@@H]2c2nc3ccccc3n2C)cc(-n2nc(C)nc2C)n1 (relative stereo) [Cpd 119, trans-2-{2-[6-(3,5-dimethyl-1H-1,2,4-triazol-1-yl)-2-ethylpyrimidin-4-yl]cyclopropyl}-1-methyl-1H-benzimidazole]
0.003 nM | COc1ccc(Cc2nc(C)nn2-c2cc(C3CC3c3nc4ccccc4n3C)nc(C)n2)cc1OC (stereo not shown) [Cpd 28, 2-(2-(6-(5-(3,4-dimethoxybenzyl)-3-methyl-1H-1,2,4-triazol-1-yl)-2-methylpyrimidin-4-yl)cyclopropyl)-1-methyl-1H-benzo[d]imidazole]
1.4 nM | COCc1nc(C)nn1-c1cc([C@H]2C[C@@H]2c2nc3ccccc3n2C)nc(C)n1 (stereo in doubt) [Cpd 86, 2-[2-{6-[5-(methoxymethyl)-3-methyl-1H-1,2,4-triazol-1-yl]-2-methylpyrimidin-4-yl}cyclopropyl]-1-methyl-1H-benzimidazole]
1.4 nM | Cc1nc([C@@H]2C[C@H]2c2nc3ccccc3n2C)cc(-n2nc(C)nc2C)n1 [Cpd 37, 2-((1R,2R)-2-(6-(3,5-dimethyl-1H-1,2,4-triazol-1-yl)-2-methylpyrimidin-4-yl)cyclopropyl)-1-methyl-1H-benzo[d]imidazole]
0.027 nM | COc1ccc(Cc2nc(C)nn2-c2cc([C@H]3C[C@@H]3c3nc4ccccc4[nH]3)nc(C)n2)cc1OC [Cpd 25, 2-((1S,2S)-2-(6-(5-(3,4-dimethoxybenzyl)-3-methyl-1H-1,2,4-triazol-1-yl)-2-methylpyrimidin-4-yl)cyclopropyl)-1H-benzo[d]imidazole]
0.9 nM | COC[C@H](C)Oc1nc([C@@H]2C[C@H]2c2nc3ccccc3n2C)cc(-n2nc(C)nc2C)n1 [Cpd 67, 2-[(1R,2R)-2-{6-(3,5-dimethyl-1H-1,2,4-triazol-1-yl)-2-[(1S)-2-methoxy-1-methylethoxy]pyrimidin-4-yl]cyclopropyl}-1-methyl-1H-benzimidazole]
0.68 nM | Cc1nc(C)n(-c2cc([C@H]3C[C@@H]3c3nc4ccccc4n3C)nc(C3CC3)n2)n1 (relative stereo) [Cpd 112, trans-2-{2-[2-cyclopropyl-6-(3,5-dimethyl-1H-1,2,4-triazol-1-yl)pyrimidin-4-yl]cyclopropyl}-1-methyl-1H-benzimidazole]
0.39 nM | COc1ccc(C2CC2c2cc(-n3nc(C)nc3Cc3ccc(OC)c(OC)c3)nc(C)n2)nc1 (stereo not shown) [Cpd 43, 4-(5-(3,4-dimethoxybenzyl)-3-methyl-1H-1,2,4-triazol-1-yl)-6-(2-(5-methoxypyridin-2-yl)cyclopropyl)-2-methylpyrimidine]
3.1 nM | Cc1nc([C@@H]2C[C@H]2c2nc3ccccc3n2C)cc(-n2nc(C)nc2CF)n1 [Cpd 93, 2-[(1R,2R)-2-{6-[5-(fluoromethyl)-3-methyl-1H-1,2,4-triazol-1-yl]-2-methylpyrimidin-4-yl}cyclopropyl]-1-methyl-1H-benzimidazole]
1.1 nM | Cc1nc(C)n(-c2cc([C@@H]3C[C@H]3c3nc4ccccc4n3C)nc(N3CC(C)(O)C3)n2)n1 [Cpd 135, 1-(4-(3,5-dimethyl-1H-1,2,4-triazol-1-yl)-6-((1R,2R)-2-(1-methyl-1H-benzo[d]imidazol-2-yl)cyclopropyl)pyrimidin-2-yl)-3-methylazetidin-3-ol]
0.58 nM | Cc1nc(C)n(-c2cc([C@@H]3C[C@H]3c3nc4ccccc4n3C)nc(N3CC[C@@H](F)C3)n2)n1 [Cpd 134, 2-((1R,2R)-2-(6-(3,5-dimethyl-1H-1,2,4-triazol-1-yl)-2-((R)-3-fluoropyrrolidin-1-yl)pyrimidin-4-yl)cyclopropyl)-1-methyl-1H-benzo[d]imidazole]
0.01 nM | COc1ccc(Cc2nc(C)nn2-c2cc(/C=C/c3ccc4ncccc4n3)nc(C)n2)cc1OC [Cpd 13, (E)-2-(2-(6-(5-(3,4-dimethoxybenzyl)-3-methyl-1H-1,2,4-triazol-1-yl)-2-methylpyrimidin-4-yl)vinyl)-1,5-naphthyridine]
1.4 nM | Cc1nc(C)n(-c2cc([C@H]3C[C@@H]3c3nc4ccccc4n3C)nc(C(F)(F)F)n2)n1 (relative stereo) [Cpd 109, trans-2-{2-[6-(3,5-dimethyl-1H-1,2,4-triazol-1-yl)-2-(trifluoromethyl)pyrimidin-4-yl]cyclopropyl}-1-methyl-1H-benzimidazole]
0.96 nM | CCc1nc(C)nn1-c1cc([C@H]2C[C@@H]2c2nc3ccccc3n2C)nc(C)n1 (stereo in doubt) [Cpd 83, 2-{2-[6-(5-ethyl-3-methyl-1H-1,2,4-triazol-1-yl)-2-methylpyrimidin-4-yl]cyclopropyl}-1-methyl-1H-benzimidazole]
